The source of these data is ChEMBL document CHEMBL3877294, “Discovery of Ruzasvir (MK-8408): A Potent, Pan-Genotype HCV NS5A Inhibitor with Optimized Activity against Common Resistance-Associated Polymorphisms” (J Med Chem, 2017).

Series [1] is described as follows: AUC (0 to t) in rhesus monkey at 5 mg/kg, po measured after 48 hrs by LC/MS/MS method. To be noted: in vivo. It is filed as ADME, organism-based, Macaca mulatta. Further details: dose 5 mg/kg, time < 48 hr, route oral.
The nature of series [2]: Half life in rhesus monkey at 1 mg/kg, iv by LC/MS/MS method. It is filed as ADME, organism-based, Macaca mulatta. To be noted: in vivo.
Series [3] can be described thus: Plasma clearance in rhesus monkey at 1 mg/kg, iv measured after 48 hrs by LC/MS/MS method. The format is ADME, organism-based, Macaca mulatta.
In series [4] the test system is Huh-7. Description: Inhibition of HCV genotype-2b NS5A harboring methionine at position 31 infected in human HuH7 cells by luciferase reporter gene assay. To be noted: Hepatitis C virus subtype 2b. It is filed as cell-based.
The subject of series [5] is Nonstructural protein 5A (Hepatitis C virus), Q5L478 [UNDEFINED MUTATION]. The experiment in a line: Inhibition of HCV genotype-1a NS5A L31V mutant infected in human HuH7 cells by luciferase reporter gene assay. The following applies: Hepatitis C virus subtype 1a; Huh-7. It is filed as cell-based.
The test system of series [6] is T1, Nonstructural protein 5A (Hepatitis C virus), Q5L478 [Y93H].
T1 sequence (whole entry): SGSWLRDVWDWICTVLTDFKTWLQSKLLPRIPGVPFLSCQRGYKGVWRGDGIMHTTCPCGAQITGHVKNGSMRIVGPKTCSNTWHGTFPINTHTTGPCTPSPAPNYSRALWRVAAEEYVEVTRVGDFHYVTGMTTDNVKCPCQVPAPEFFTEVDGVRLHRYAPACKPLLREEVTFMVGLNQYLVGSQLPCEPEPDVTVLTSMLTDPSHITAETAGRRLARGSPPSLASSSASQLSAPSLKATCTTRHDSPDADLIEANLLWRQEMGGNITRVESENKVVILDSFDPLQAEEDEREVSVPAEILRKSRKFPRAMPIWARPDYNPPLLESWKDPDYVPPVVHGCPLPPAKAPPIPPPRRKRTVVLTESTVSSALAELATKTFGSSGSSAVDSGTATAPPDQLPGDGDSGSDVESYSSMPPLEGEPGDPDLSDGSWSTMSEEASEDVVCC
Description: Inhibition of HCV genotype-1a NS5A Y93H mutant infected in human HuH7 cells by luciferase reporter gene assay. It is filed as cell-based. The following applies: Hepatitis C virus subtype 1a; Huh-7.

Series [7] has as its system Huh-7. Description: Inhibition of HCV genotype-3a NS5A infected in human HuH7 cells by luciferase reporter gene assay. To be noted: Hepatitis C virus subtype 3a. It is filed as cell-based.
The test system of series [8] is Huh-7. The experiment in a line: Inhibition of HCV genotype-1a NS5A infected in human HuH7 cells by luciferase reporter gene assay. It is filed as cell-based. To be noted: Hepatitis C virus subtype 1a.
Series [9] in a line: Oral bioavailability in rhesus monkey at 5 mg/kg measured at 48 hrs post dose by LC/MS/MS method. It is filed as ADME, organism-based, Macaca mulatta. To be noted: in vivo.

As to `COC(=O)N[C@H](C(=O)N1CCC[C@H]1c1ncc(-c2cc(F)c3c(c2)OC(c2cc(C(C)C)no2)n2c-3cc3cc(-c4cnc([C@@H]5CCCN5C(=O)[C@@H](NC(=O)OC)C(C)C)[nH]4)ccc32)[nH]1)C(C)C` (some centres undefined), the AUC(0-t) at 48 h in series [1] was 3.9 µM·h. For the same compound, the half-life in [2] was 10.2 h. Moreover, the clearance in series [3] turned out to be 2.2 mL/min/kg. Moreover, the EC90 with Huh-7 [4] was 0.92 nM; in series [5] it was 0.056 nM; in series [6] it was 0.42 nM; in the series on Huh-7 [7], 0.019 nM; in the series with Huh-7 [8], 0.002 nM. The compound further registered a bioavailability in series [9] of 10%.
